The source of these data is ChEMBL document CHEMBL3085662, “Overman rearrangement and Pomeranz-Fritsch reaction for the synthesis of benzoazepinoisoquinolones to discover novel antitumor agents” (Eur J Med Chem, 2013).

Experiment [1] has as its system HCT-116. Briefly: Cytotoxicity against human HCT116 cells after 72 hrs by MTT assay. As to conditions: HCT-116, 72 h. In kind it is functional, cell-based. (In general: Tetrazolium assays rely on reduction of a dye to a coloured formazan, in cell work by metabolically active cells.)
The test system of experiment [2] is A-375. As to the kind of experiment: Cytotoxicity against human A375 cells after 72 hrs by MTT assay. In kind it is functional, cell-based. As to conditions: A-375, 72 h.
For another experiment, the system named is NCI-H69. Briefly: Cytotoxicity against human NCI-H69 cells at 10 uM after 72 hrs by MTT assay. As to conditions: NCI-H69, 72 h. In kind it is functional.
The next experiment has as its system K562. Briefly: Cytotoxicity against human K562 cells at 10 uM after 72 hrs by MTT assay. In kind it is functional. As to conditions: K562, 72 h.
Experiment [3] in a line: Cytotoxicity against human Jurkat E6-1 cells at 10 uM after 72 hrs by MTT assay. In kind it is functional.
A short description of experiment [4]: Cytotoxicity against human NCI-H1115 cells at 10 uM after 72 hrs by MTT assay. In kind it is functional. As to conditions: NCI-H1115, 72 h.
In experiment [5] the test system is HCT-116. Briefly: Cytotoxicity against human HCT116 cells at 10 uM after 72 hrs by MTT assay. In kind it is functional. As to conditions: HCT-116, 72 h.
In the next experiment the test system is PC-3. As to the kind of experiment: Cytotoxicity against human PC3 cells at 10 uM after 72 hrs by MTT assay. As to conditions: PC-3, 72 h. In kind it is functional.
A short description of experiment [6]: Cytotoxicity against human LN18 cells at 10 uM after 72 hrs by MTT assay. In kind it is functional. As to conditions: LN-18, 72 h.
The test system of the next experiment is MDA-MB-231. Briefly: Cytotoxicity against human MDA-MB-231 cells at 10 uM after 72 hrs by MTT assay. In kind it is functional. As to conditions: MDA-MB-231, 72 h.
Experiment [7] relates to A-375. As to the kind of experiment: Cytotoxicity against human A375 cells at 10 uM after 72 hrs by MTT assay. In kind it is functional. As to conditions: A-375, 72 h.
Another experiment deals with HT-29. As to the kind of experiment: Cytotoxicity against human HT-29 cells at 10 uM after 72 hrs by MTT assay. In kind it is functional. As to conditions: HT-29, 72 h.
The subject of a further experiment is HepG2. As to the kind of experiment: Cytotoxicity against human HepG2 cells at 10 uM after 72 hrs by MTT assay. In kind it is functional. As to conditions: HepG2, 72 h.
The next experiment relates to NCI-N87. Briefly: Cytotoxicity against human NCI-N87 cells at 10 uM after 72 hrs by MTT assay. In kind it is functional. As to conditions: NCI-N87, 72 h.
The next experiment in a line: cells. As to conditions: Homo sapiens, 786-0, 72 h. In kind it is functional.
Experiment [8] can be described thus: Cytotoxicity against human U937 cells at 10 uM after 72 hrs by MTT assay. In kind it is functional. As to conditions: U-937, 72 h.

pIC50: −log10 of the molar value.

Description for cells: Cytotoxicity against human 786-O cells at 10 uM after 72 hrs by MTT assay

`COc1ccc2cc(-c3ccc4c(c3)OCO4)n(CC(O)CO)c(=O)c2c1OC` (racemic): the pIC50 with HCT-116 [1] and with A-375 [2] was below 5.00 in each case.
With `C=CCn1c(-c2ccc(OC)c(OC)c2)cc2ccc(OC)c(OC)c2c1=O`, the pIC50 (in general, the IC50 on a negative log10 scale, so that one unit is a factor of ten) in the experiment on HCT-116 [1] is below 5.00; in the experiment on A-375 [2] it was 6.30.
Take `COc1cc2c(cc1OC)-c1cc3ccc(OC)c(OC)c3c(=O)n1CC=C2`: the pIC50 in the experiment on HCT-116 [1] is 5.05; in the experiment with A-375 [2] it was 5.68.
In the case of `C=CCn1c(-c2ccc3c(c2)OCO3)cc2ccc(OC)c(OC)c2c1=O`, the results for the pIC50 in the experiment on HCT-116 [1] and in the experiment with A-375 [2] were 6.07 and 6.70, respectively.
With `COc1ccc2cc3n(c(=O)c2c1OC)CC=Cc1cc2c(cc1-3)OCO2`, the inhibition (in general, the change of the read-out against control, counted positive when it falls) at 10 µM was 56.8% in the experiment with NCI-H69; 51% with K562; 73% in experiment [3]; 77.7% in experiment [4]; 59.1% with HCT-116 [5]; 58.4% in the experiment on PC-3. The inhibition at 10 µM in experiment [6] came to 56.4%; with MDA-MB-231, 39.1%; in the experiment on A-375 [7], 86.5%; in the experiment on HT-29, 50.3%; in the experiment with HepG2 it was 54.6%; in the experiment on NCI-N87, 46%. Moreover, the inhibition at 10 µM in the experiment “cells” stood at 61.9%; in [8], 66.9%. Further, the results for the pIC50 with HCT-116 [1] and in the experiment with A-375 [2] were 5.31 and 6.23, respectively.
As for `CNC(=O)c1cc(Oc2ccc(NC(=O)Nc3ccc(Cl)c(C(F)(F)F)c3)cc2)ccn1` [SORAFENIB], the values for the negative-log IC50 (pIC50) in the experiment on HCT-116 [1] and in the experiment with A-375 [2] were 5.25 and 5.12, respectively.
Taken in the same sequence, the figures for `C=CCn1c(-c2cc3c(cc2C=C)OCO3)cc2ccc(OC)c(OC)c2c1=O` were 6.19 and 6.77.
With `COc1ccc2cc(-c3ccc4c(c3)OCO4)n(CC=O)c(=O)c2c1OC`, the values for the pIC50 in the experiment with HCT-116 [1] and in the experiment with A-375 [2] were 5.03 and 5.42, respectively.
As for `C=Cc1cc2c(cc1-c1cc3ccc(OC)c(OC)c3c(=O)[nH]1)OCO2`, the values for the pIC50 in the experiment with HCT-116 [1] and in the experiment with A-375 [2] were 5.81 and 6.37, respectively.
For `C=CCOc1nc(-c2ccc3c(c2)OCO3)cc2ccc(OC)c(OC)c12` the same measures were below 5.00 and below 5.00.
Taken in the same sequence, the figures for `COc1ccc2cc(-c3ccc4c(c3)OCO4)n(CCC=O)c(=O)c2c1OC` were 5.33 and 5.53.
In the case of `COc1ccc2cc(-c3ccc4c(c3)OCO4)[nH]c(=O)c2c1OC`, the pIC50 in the experiment on HCT-116 [1] was below 5.00; in the experiment with A-375 [2] it was 5.10.
Consider `CCCS(=O)(=O)Nc1ccc(F)c(C(=O)c2c[nH]c3ncc(-c4ccc(Cl)cc4)cc23)c1F` [VEMURAFENIB], for which the pIC50 is below 4.52 with HCT-116 [1] and 6.74 in the experiment on A-375 [2].
As for `COc1ccc2cc3n(c(=O)c2c1OC)CC(O)C(O)c1cc2c(cc1-3)OCO2` (centres undefined), the inhibition at 10 µM came out at 19.8% in the experiment on NCI-H69; 15.6% in the experiment on K562; 14.8% in [3]; 25.8% in experiment [4]; 32.8% in the experiment with HCT-116 [5]; 33.9% in the experiment with PC-3. For the same compound, the inhibition at 10 µM in experiment [6] turned out to be 36.5%; with MDA-MB-231, 9.29%; in the experiment with A-375 [7] it was 51.1%; with HT-29 it was 7.56%; in the experiment on HepG2, 20.9%; in the experiment on NCI-N87, 18.3%. Also, the values for the inhibition at 10 µM (in the experiment “cells”; in experiment [8]) were 11% and 23.5%, respectively. Besides, the pIC50 in the experiment with HCT-116 [1] was 4.65; in the experiment with A-375 [2] it was 5.05.
Regarding `COc1ccc(-c2cc3ccc(OC)c(OC)c3c(=O)n2CCC=O)cc1OC`, the pIC50 with HCT-116 [1] was below 5.00; in the experiment on A-375 [2], 5.24.
For `CO/C=C/Cn1c(-c2ccc3c(c2)OCO3)cc2ccc(OC)c(OC)c2c1=O` the same measures were 6.38 and 6.96.
For `C=CCOc1nc(-c2ccc(OC)c(OC)c2)cc2ccc(OC)c(OC)c12` the same measures were below 5.00 and below 5.00.
For `COc1ccc(-c2cc3ccc(OC)c(OC)c3c(=O)[nH]2)cc1OC` the same measures were below 5.00 and below 5.00.
